# Tests used:
# [1] = target: T1, ACSS2 (Homo sapiens, UniProt Q9NR19); experiment: cell-based
# Experimental: Testing the inhibitory effect of compounds on the cellular activity of ACSS2 was done by tracing the incorporation of ^13C from ^13C-acetate into fatty-acids in MDA-MB-468 cells under hypoxic conditions of 1% 02. The assay was done for 5 hours in DMEM with 5.5 mM glucose, 1 mM sodium Pyruvate, 0.65 mM Glutamine, 3.5 ug/ml Biotin, 1% dialyzed serum, 0.5 mM 13C-acetate and with different concentrations of the inhibitors. At the end of the incubation, the cells were washed with cold PBS, harvested into glass tubes and undergo saponification. The level of ^13C incorporation into Palmitate was done by LC-MS analysis and the level of inhibition was calculated with PRISM software.
# [2] = target: T1, ACSS2; experiment: biochemical
# T1 sequence (Q9NR19 whole entry): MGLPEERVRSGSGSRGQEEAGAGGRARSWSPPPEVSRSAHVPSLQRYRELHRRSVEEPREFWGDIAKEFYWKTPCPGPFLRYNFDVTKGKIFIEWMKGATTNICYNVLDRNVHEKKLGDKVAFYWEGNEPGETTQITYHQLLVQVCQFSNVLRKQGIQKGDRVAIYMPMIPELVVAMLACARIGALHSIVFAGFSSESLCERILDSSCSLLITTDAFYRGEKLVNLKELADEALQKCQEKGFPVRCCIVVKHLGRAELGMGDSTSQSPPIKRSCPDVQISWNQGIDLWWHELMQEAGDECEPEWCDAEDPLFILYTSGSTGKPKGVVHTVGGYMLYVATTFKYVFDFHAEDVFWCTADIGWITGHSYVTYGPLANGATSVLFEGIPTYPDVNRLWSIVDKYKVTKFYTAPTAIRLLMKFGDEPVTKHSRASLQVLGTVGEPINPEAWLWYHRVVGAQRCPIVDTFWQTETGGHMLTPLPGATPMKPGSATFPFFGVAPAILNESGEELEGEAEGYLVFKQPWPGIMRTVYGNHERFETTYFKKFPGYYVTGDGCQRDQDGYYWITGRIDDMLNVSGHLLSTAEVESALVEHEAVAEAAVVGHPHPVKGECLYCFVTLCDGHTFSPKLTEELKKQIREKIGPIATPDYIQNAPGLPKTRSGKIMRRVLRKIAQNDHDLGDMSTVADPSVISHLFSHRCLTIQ
SMILES,IC50 [1],IC50 [2]
COC(=O)c1cccc(N2N=C(C)C(C(=O)Nc3cccc(-c4cnccn4)c3)C2=O)c1 (stereo not shown) [compound 164],> 100 nM,0.01 to 6 nM
CC1=NN(c2ccc(OC(F)F)c(-c3cncnc3)c2)C(=O)C1C(=O)Nc1cccc(C(C)(F)F)c1 (stereo not shown) [compound 316],0.5 to 50 nM,–
COc1ccc(N2N=C(C)C(C(=O)Nc3cccc(-c4ncc[nH]4)c3)C2=O)cn1 (stereo not shown) [compound 244],> 100 nM,6 to 100 nM
COc1ccc(N2N=C(C)C(C(=O)Nc3cccc(-c4cnccn4)c3)C2=O)cc1 (stereo not shown) [compound 241],50 to 100 nM,0.01 to 6 nM
COc1ccc(N2N=C(C)C(C(=O)Nc3cccc(C(C)(F)F)c3)C2=O)cc1-c1ncco1 (stereo not shown) [compound 301],0.5 to 50 nM,0.01 to 6 nM
COC(=O)c1cccc(N2N=C(C)C(C(=O)Nc3cccc(-c4ncc[nH]4)c3)C2=O)c1 (stereo not shown) [compound 167],> 100 nM,0.01 to 6 nM
COc1ccc(N2N=C(C)C(C(=O)Nc3cccc(C(C)(F)F)c3)C2=O)cc1-c1cncnc1 (stereo not shown) [compound 323],0.5 to 50 nM,–
CC1=NN(c2ccc(OC(F)F)cc2)C(=O)C1C(=O)Nc1cccc(C(C)(F)F)c1 (stereo not shown) [compound 298],0.5 to 50 nM,0.01 to 6 nM
[2H]C([2H])([2H])Oc1ccc(N2N=C(C)C(C(=O)Nc3cccc(C(C)(F)F)c3)C2=O)cc1 (stereo not shown) [compound 286],0.5 to 50 nM,0.01 to 6 nM
COc1cccc(N2N=C(C)C(C(=O)Nc3cccc(C(C)(F)F)c3)C2=O)c1 (stereo not shown) [compound 250],0.5 to 50 nM,0.01 to 6 nM
COc1ccc(N2N=C(C)C(C(=O)Nc3cccc(-c4ccco4)c3)C2=O)cc1 (stereo not shown) [compound 266],0.5 to 50 nM,0.01 to 6 nM
CC1=NN(c2cccc(S(=O)(=O)N(C)C)c2)C(=O)C1C(=O)Nc1cccc(-c2ccco2)c1 (stereo not shown) [compound 263],0.5 to 50 nM,6 to 100 nM
"CC1=NN(c2cccc(C(F)(F)F)c2)C(=O)C1C(=O)Nc1cccc(-c2ncc[nH]2)c1 (stereo not shown) [compound 149, N-(3-(1H-imidazol-2-yl)phenyl)-3-methyl-5-oxo-1-(3-(trifluoromethyl)phenyl)-4,5-dihydro-1H-pyrazole-4-carboxamide]",> 100 nM,6 to 100 nM
COC(=O)c1cccc(N2N=C(C)C(C(=O)Nc3cccc(-c4ccco4)c3)C2=O)c1 (stereo not shown) [compound 269],0.5 to 50 nM,0.01 to 6 nM
CC1=NN(c2cccc(-c3nccn3C)c2)C(=O)C1C(=O)Nc1cccc(C(C)(F)F)c1 (stereo not shown) [compound 289],0.5 to 50 nM,0.01 to 6 nM
CC1=NN(c2ccc(OC3CCC3)cc2)C(=O)C1C(=O)Nc1cccc(C(C)(F)F)c1 (stereo not shown) [compound 325],0.5 to 50 nM,–
COc1ccc(N2N=C(C)C(C(=O)Nc3cccc(C(C)(F)F)c3)C2=O)cc1-c1cccnc1 (stereo not shown) [compound 320],0.5 to 50 nM,–
COc1ccc(N2N=C(C)C(C(=O)Nc3cccc(-c4cnccn4)c3)C2=O)cn1 (stereo not shown) [compound 243],> 100 nM,0.01 to 6 nM
CC1=NN(c2ccc(OC(F)(F)F)c(-c3ncco3)c2)C(=O)C1C(=O)Nc1cccc(-c2ccco2)c1 (stereo not shown) [compound 292],0.5 to 50 nM,0.01 to 6 nM
COc1ccc(N2N=C(C)C(C(=O)Nc3cccc(C(C)(F)F)c3)C2=O)nc1 (stereo not shown) [compound 304],0.5 to 50 nM,0.01 to 6 nM

SMILES,IC50 [1],IC50 [2]
CC1=NN(c2ccc(OC(F)F)cc2)C(=O)C1C(=O)Nc1cc(C(C)(F)F)ccc1CO (stereo not shown) [compound 306],0.5 to 50 nM,–
CC1=NN(c2ccc(OC(F)F)c(-c3ccncc3)c2)C(=O)C1C(=O)Nc1cccc(C(C)(F)F)c1 (stereo not shown) [compound 315],0.5 to 50 nM,–
COc1cccc(N2N=C(C)C(C(=O)Nc3cccc(-c4cnccn4)c3)C2=O)c1 (stereo not shown) [compound 249],0.5 to 50 nM,0.01 to 6 nM
COC(=O)c1cccc(N2N=C(C)C(C(=O)Nc3cccc(-c4ncco4)c3)C2=O)c1 (stereo not shown) [compound 259],> 100 nM,6 to 100 nM
CC1=NN(c2cccc(C(F)(F)F)c2)C(=O)C1C(=O)Nc1cccc(C(C)(F)F)c1 (stereo not shown) [compound 271],0.5 to 50 nM,0.01 to 6 nM
CCC(F)(F)c1cccc(NC(=O)C2C(=O)N(c3ccc(OC)cc3)N=C2C)c1 (stereo not shown) [compound 330],0.5 to 50 nM,–
CC1=NN(c2ccc(OC3COC3)cc2)C(=O)C1C(=O)Nc1cccc(C(C)(F)F)c1 (stereo not shown) [compound 326],0.5 to 50 nM,–
COc1ccc(N2N=C(C)C(C(=O)Nc3cccc(C(C)(F)F)c3)C2=O)cc1-c1ccccc1 (stereo not shown) [compound 313],0.5 to 50 nM,–
CC1=NN(c2ccc(OC3CCCC3)cc2)C(=O)C1C(=O)Nc1cccc(C(C)(F)F)c1 (stereo not shown) [compound 319],0.5 to 50 nM,–
COc1ccc(N2N=C(C)C(C(=O)Nc3cccc(C(C)(F)F)c3)C2=O)c(F)c1 (stereo not shown) [compound 314],0.5 to 50 nM,–
COc1ccc(N2N=C(C)C(C(=O)Nc3cccc(C(C)(F)F)c3)C2=O)cc1-c1cnccn1 (stereo not shown) [compound 332],0.5 to 50 nM,–
CC1=NN(c2cccc(C(=O)OC(C)C)c2)C(=O)C1C(=O)Nc1cccc(-c2cnccn2)c1 (stereo not shown) [compound 234],> 100 nM,0.01 to 6 nM
CC1=NN(c2ccc(OC(C)C)cc2)C(=O)C1C(=O)Nc1cccc(C(C)(F)F)c1 (stereo not shown) [compound 318],0.5 to 50 nM,–
COc1ccc(N2N=C(C)C(C(=O)Nc3cccc(-c4ncc[nH]4)c3)C2=O)cc1 (stereo not shown) [compound 255],> 100 nM,6 to 100 nM
CC1=NN(c2cccc(-c3ncco3)c2)C(=O)C1C(=O)Nc1cccc(-c2ccco2)c1 (stereo not shown) [compound 228],0.5 to 50 nM,0.01 to 6 nM
"CC(=O)Cc1cccc(NC(=O)C2C(=O)N(c3ccccc3)N=C2C)c1 (stereo not shown) [compound 145, 3-methyl-5-oxo-N-(3-(2-oxopropyl)phenyl)-1-phenyl-4,5-dihydro-1H-pyrazole-4-carboxamide]",> 100 nM,0.01 to 6 nM
COc1ccc(N2N=C(C)C(C(=O)Nc3cccc(C(C)(F)F)c3)C2=O)cc1OC (stereo not shown) [compound 287],0.5 to 50 nM,0.01 to 6 nM
CC1=NN(c2ccc(C3CC3)cc2)C(=O)C1C(=O)Nc1cccc(C(C)(F)F)c1 (stereo not shown) [compound 308],0.5 to 50 nM,–
CC1=NN(c2ccc(-c3nnn[nH]3)cc2)C(=O)C1C(=O)Nc1cccc(C(C)(F)F)c1 (stereo not shown) [compound 297],> 100 nM,0.01 to 6 nM
COc1ccc(N2N=C(C)C(C(=O)Nc3cccc(C(C)(F)F)c3)C2=O)cc1C (stereo not shown) [compound 303],0.5 to 50 nM,0.01 to 6 nM

SMILES,IC50 [1],IC50 [2]
CC1=NN(c2cccc(C(=O)OC(C)C)c2)C(=O)C1C(=O)Nc1cccc(-c2ccco2)c1 (stereo not shown) [compound 237],> 100 nM,6 to 100 nM
CC1=NN(c2ccncc2)C(=O)C1C(=O)Nc1cccc(C(C)(F)F)c1 (stereo not shown) [compound 231],> 100 nM,6 to 100 nM
CC1=NN(c2ccc(OC(F)(F)F)c(-c3ncco3)c2)C(=O)C1C(=O)Nc1cccc(C(C)(F)F)c1 (stereo not shown) [compound 291],0.5 to 50 nM,0.01 to 6 nM
CC1=NN(c2ccc(OC(F)F)c(-c3ccccc3)c2)C(=O)C1C(=O)Nc1cccc(C(C)(F)F)c1 (stereo not shown) [compound 312],50 to 100 nM,–
CC1=NN(c2ccc(OC(F)F)c(-c3ccccn3)c2)C(=O)C1C(=O)Nc1cccc(C(C)(F)F)c1 (stereo not shown) [compound 327],0.5 to 50 nM,–
CC1=NN(c2ccc(OC3CCCCC3)cc2)C(=O)C1C(=O)Nc1cccc(C(C)(F)F)c1 (stereo not shown) [compound 322],0.5 to 50 nM,–
CCCOc1ccc(N2N=C(C)C(C(=O)Nc3cccc(C(C)(F)F)c3)C2=O)cc1 (stereo not shown) [compound 317],0.5 to 50 nM,–
CCC(C)Oc1ccc(N2N=C(C)C(C(=O)Nc3cccc(C(C)(F)F)c3)C2=O)cc1 (stereo not shown) [compound 321],0.5 to 50 nM,–
COc1ccc(N2N=C(C)C(C(=O)Nc3cccc(C(C)(F)F)c3)C2=O)cc1-c1ccccn1 (stereo not shown) [compound 331],0.5 to 50 nM,–
CC1=NN(c2ccc(OC(F)F)c(-c3cccnc3)c2)C(=O)C1C(=O)Nc1cccc(C(C)(F)F)c1 (stereo not shown) [compound 310],0.5 to 50 nM,–
CC1=NN(c2ccc(OC(F)F)c(-c3cnccn3)c2)C(=O)C1C(=O)Nc1cccc(C(C)(F)F)c1 (stereo not shown) [compound 328],0.5 to 50 nM,–
CC1=NN(c2ccc(OC(F)F)cc2F)C(=O)C1C(=O)Nc1cccc(C(C)(F)F)c1 (stereo not shown) [compound 309],0.5 to 50 nM,–
CC1=NN(c2ccc(OC(F)(F)F)cc2)C(=O)C1C(=O)Nc1cccc(C(C)(F)F)c1 (stereo not shown) [compound 226],50 to 100 nM,–
COc1cc(N2N=C(C)C(C(=O)Nc3cccc(C(C)(F)F)c3)C2=O)ccc1OC(F)F (stereo not shown) [compound 311],0.5 to 50 nM,–
CC1=NN(c2ccc(OC(C)(C)C)cc2)C(=O)C1C(=O)Nc1cccc(C(C)(F)F)c1 (stereo not shown) [compound 324],0.5 to 50 nM,–
COc1ccc(N2N=C(C)C(C(=O)Nc3cccc(C(C)(F)F)c3)C2=O)c(C(C)(C)C)c1 (stereo not shown) [compound 305],> 100 nM,–
CC1=NN(c2ccc(OC(F)F)c(-c3nnc(C)[nH]3)c2)C(=O)C1C(=O)Nc1cccc(C(C)(F)F)c1 (stereo not shown) [compound 371],–,0.01 to 6 nM
CCC(F)(F)c1cccc(NC(=O)C2C(=O)N(c3ccc(OC(F)F)c(-c4nnc(C)[nH]4)c3)N=C2C)c1 (stereo not shown) [compound 370],–,0.01 to 6 nM
COc1ccc(N2N=C(C)C(C(=O)Nc3cccc(C(C)(F)F)c3)C2=O)cc1-c1cccnc1 (stereo not shown) [compound 445],–,0.01 to 6 nM

# Reference: patent US10851064B2, “ACSS2 inhibitors and methods of use thereof” (METABOMED LTD., priority 2017, dated 2020)
